In brackets after ≈: the same amount, converted by molar mass. Where two headings read alike, the source gives them in different places.
Tests used:
[1] = tested on: vancomycin-susceptible (Vanco^s) E. faecium and E. faecalis; assay: Susceptibility of vancomycin-susceptible enterococci, agar-dilution MIC; type: cell-based; conditions: n = 34 strains; end points read after 24-hour incubation
Method: (§1) End points were read after 24-hour incubation. The ratio was calculated by dividing the mean MIC of the compound against the vancomycin-resistant strains by the mean MIC of the compound against the vancomycin-susceptible strains.

Streptococcus pyogenes = assay: In vivo activity, experimentally infected mice (ED50); conditions: Streptococcus pyogenes infection; doses administered subcutaneously to mice 1 and 4 hours postinfection
[2] = tested on: Staphylococcus aureus S13E; type: cell-based
Method: (§2) The formula I compounds have in vitro and in vivo activity against Gram-positive pathogenic bacteria. The MIC's were determined using a standard agar-dilution assays.

[3] = tested on: Streptococcus pneumoniae Park 1; type: cell-based
Method: as §2

[4] = tested on: Staphylococcus epidermidis 222; assay: MIC, standard agar-dilution assay; type: cell-based
Method: as §2

[5] = tested on: Haemophilus influenzae 76; assay: MIC, standard agar-dilution assay; type: cell-based
Method: as §2

[6] = tested on: Staphylococcus aureus X400; assay: MIC, standard agar-dilution assay; type: cell-based
Method: as §2

[7] = tested on: Streptococcus pyogenes C203; assay: MIC, standard agar-dilution assay; type: cell-based
Method: as §2

[8] = tested on: Klebsiella pneumoniae X26; assay: MIC, standard agar-dilution assay; type: cell-based
Method: as §2

[9] = tested on: Klebsiella pneumoniae KAE; assay: MIC, standard agar-dilution assay; type: cell-based
Method: as §2

[10] = tested on: Haemophilus influenzae C.L.; assay: MIC, standard agar-dilution assay; type: cell-based
Method: as §2

[11] = tested on: Staphylococcus aureus V41; assay: MIC, standard agar-dilution assay; type: cell-based
Method: as §2

Escherichia coli N10 = assay: MIC, standard agar-dilution assay; type: cell-based
Method: as §2

[12] = tested on: Klebsiella pneumoniae X68; assay: MIC, standard agar-dilution assay; type: cell-based
Method: as §2

[13] = tested on: Staphylococcus aureus NRRL X1.1; assay: MIC, standard agar-dilution assay; type: cell-based
Method: as §2

Escherichia coli EC14 = assay: MIC, standard agar-dilution assay; type: cell-based
Method: as §2

[14] = tested on: Staphylococcus epidermidis EPI270; assay: MIC, standard agar-dilution assay; type: cell-based
Method: as §2

Escherichia coli TEM = assay: MIC, standard agar-dilution assay; type: cell-based
Method: as §2

Streptococcus pneumoniae = assay: In vivo activity, experimentally infected mice (ED50); conditions: Streptococcus pneumoniae infection; doses administered subcutaneously to mice 1 and 4 hours postinfection
Staphylococcus aureus = assay: as above; conditions: Staphylococcus aureus infection; doses administered subcutaneously to mice 1 and 4 hours postinfection
[15] = tested on: six vancomycin-susceptible strains of staphylococci and enterococci; assay: Effect of human serum on the MIC, serial dilution assay; type: cell-based; conditions: for MIC determined in absence of added serum: absence (-) of human serum; for MIC determined in presence of human serum: broth supplemented with human serum to 40%
Source text: Another important property of the formula I compounds is the low binding of the compounds to serum proteins when compared with other glycopeptide antibiotics. […] The ratio of the MIC measured in the presence of added serum to the MIC measured in the absence of added serum ("ratio") is an indication of the degree of serum binding. […] A ratio that is greater than one, for example about ten, indicates the compound has a high degree of serum binding.

[16] = tested on: vancomycin-resistant (Vanco^r) E. faecium and E. faecalis; assay: Susceptibility of vancomycin-resistant enterococci, agar-dilution MIC; type: cell-based; conditions: for Geometric Mean MIC, Vanco^r Strains: n = 25 strains, end points read after 24-hour incubation
Method: as §1

[17] = tested on: Enterococcus faecalis 2041; assay: MIC, standard agar-dilution assay; type: cell-based
Method: as §2
^c Formerly Streptococcus faecalis 2041

Enterococcus faecium X66 = assay: MIC, standard agar-dilution assay; type: cell-based
Method: as §2
^b Formerly Streptococcus faecium X66

[18] = indication of the degree of serum binding

SMILES: CCCCCCCCN[C@@]1(C)C[C@H](O[C@H]2[C@H](Oc3c4cc5cc3Oc3ccc(cc3Cl)[C@@H](O[C@H]3C[C@](C)(N)[C@@H](O)[C@H](C)O3)[C@@H]3NC(=O)[C@H](NC(=O)[C@@H]5NC(=O)[C@H](CC(N)=O)NC(=O)[C@H](NC(=O)[C@@H](CC(C)C)NC)[C@H](O)c5ccc(c(Cl)c5)O4)c4ccc(O)c(c4)-c4c(O)cc(O)cc4[C@@H](C(=O)O)NC3=O)O[C@H](CO)[C@@H](O)[C@@H]2O)O[C@@H](C)[C@@H]1O [Compound 38]
- Geometric Mean MIC, Vanco^s Strains [1]: 0.73 µg/mL
- ED50 (Streptococcus pyogenes): 0.11 mg/kg/2
- MIC [2]: .5 µg/mL (≈ 0.293 µM)
- MIC [3]: .25 µg/mL (≈ 0.147 µM)
- MIC [4]: .5 µg/mL (≈ 0.293 µM)
- MIC [5]: > 128 µg/mL
- MIC [6]: 1 µg/mL (≈ 0.587 µM)
- MIC [7]: .06 µg/mL (≈ 0.0352 µM)
- MIC [8]: > 128 µg/mL
- MIC [9]: > 128 µg/mL
- MIC [10]: > 128 µg/mL
- MIC [11]: 1 µg/mL (≈ 0.587 µM)
- MIC (Escherichia coli N10): > 128 µg/mL
- MIC [12]: > 128 µg/mL
- MIC [13]: .5 µg/mL (≈ 0.293 µM)
- MIC (Escherichia coli EC14): > 128 µg/mL
- MIC [14]: 1 µg/mL (≈ 0.587 µM)
- MIC (Escherichia coli TEM): > 128 µg/mL
- ED50 (Streptococcus pneumoniae): 0.062 mg/kg/2
- ED50 (Staphylococcus aureus): 0.43 mg/kg/2
- MIC determined in absence of added serum [15]: 0.75
- ratio of the MIC in the presence of added serum to the MIC in the absence of added serum [15, 18]: 0.58
- MIC determined in presence of human serum [15]: 0.43
- Ratio (mean MIC vancomycin-resistant strains / mean MIC vancomycin-susceptible strains) [16]: 2.9
- Geometric Mean MIC, Vanco^r Strains [16]: 2.1 µg/mL
- MIC [17]: .25 µg/mL (≈ 0.147 µM)
- MIC (Enterococcus faecium X66): .25 µg/mL (≈ 0.147 µM)

SMILES: CNC(CC(C)C)C(=O)NC1C(=O)NC(CC(N)=O)C(=O)NC2C(=O)NC3C(=O)NC(C(=O)NC(C(=O)O)c4cc(O)cc(O)c4-c4cc3ccc4O)C(OC3CC(C)(N)C(O)C(C)O3)c3ccc(c(Cl)c3)Oc3cc2cc(c3OC2OC(CO)C(O)C(O)C2OC2CC(C)(NCC(c3ccccc3)c3ccccc3)C(O)C(C)O2)Oc2ccc(cc2Cl)C1O (centres unmarked) [Compound 45]
- Geometric Mean MIC, Vanco^s Strains [1]: 1.7 µg/mL
- ED50 (Streptococcus pyogenes): 0.1 mg/kg/2
- MIC [2]: .5 µg/mL (≈ 0.282 µM)
- MIC [3]: .25 µg/mL (≈ 0.141 µM)
- MIC [4]: .5 µg/mL (≈ 0.282 µM)
- MIC [5]: > 128 µg/mL
- MIC [6]: .5 µg/mL (≈ 0.282 µM)
- MIC [7]: .125 µg/mL (≈ 0.0705 µM)
- MIC [8]: > 128 µg/mL
- MIC [9]: > 128 µg/mL
- MIC [10]: > 128 µg/mL
- MIC [11]: .5 µg/mL (≈ 0.282 µM)
- MIC (Escherichia coli N10): > 128 µg/mL
- MIC [12]: > 128 µg/mL
- MIC [13]: .25 µg/mL (≈ 0.141 µM)
- MIC (Escherichia coli EC14): > 128 µg/mL
- MIC [14]: 1 µg/mL (≈ 0.564 µM)
- MIC (Escherichia coli TEM): > 128 µg/mL
- ED50 (Streptococcus pneumoniae): 0.1 mg/kg/2
- ED50 (Staphylococcus aureus): 0.77 mg/kg/2
- Ratio (mean MIC vancomycin-resistant strains / mean MIC vancomycin-susceptible strains) [16]: 5.5
- Geometric Mean MIC, Vanco^r Strains [16]: 9.4 µg/mL
- MIC [17]: .5 µg/mL (≈ 0.282 µM)
- MIC (Enterococcus faecium X66): .5 µg/mL (≈ 0.282 µM)

SMILES: CCN(CC)c1ccc(CNC2(C)CC(OC3C(Oc4c5cc6cc4Oc4ccc(cc4Cl)C(OC4CC(C)(N)C(O)C(C)O4)C4NC(=O)C(NC(=O)C6NC(=O)C(CC(N)=O)NC(=O)C(NC(=O)C(CC(C)C)NC)C(O)c6ccc(c(Cl)c6)O5)c5ccc(O)c(c5)-c5c(O)cc(O)cc5C(C(=O)O)NC4=O)OC(CO)C(O)C3O)OC(C)C2O)cc1 (centres unmarked) [Compound 56]
- Geometric Mean MIC, Vanco^s Strains [1]: 0.73 µg/mL
- ED50 (Streptococcus pyogenes): .06 mg/kg/2
- MIC [2]: 1 µg/mL (≈ 0.57 µM)
- MIC [3]: .5 µg/mL (≈ 0.285 µM)
- MIC [4]: .5 µg/mL (≈ 0.285 µM)
- MIC [5]: > 128 µg/mL
- MIC [6]: 1 µg/mL (≈ 0.57 µM)
- MIC [7]: .5 µg/mL (≈ 0.285 µM)
- MIC [8]: > 128 µg/mL
- MIC [9]: > 128 µg/mL
- MIC [10]: > 128 µg/mL
- MIC [11]: .5 µg/mL (≈ 0.285 µM)
- MIC (Escherichia coli N10): > 128 µg/mL
- MIC [12]: > 128 µg/mL
- MIC [13]: .5 µg/mL (≈ 0.285 µM)
- MIC (Escherichia coli EC14): > 128 µg/mL
- MIC [14]: 2 µg/mL (≈ 1.14 µM)
- MIC (Escherichia coli TEM): > 128 µg/mL
- ED50 (Streptococcus pneumoniae): .09 mg/kg/2
- ED50 (Staphylococcus aureus): 0.65 mg/kg/2
- Ratio (mean MIC vancomycin-resistant strains / mean MIC vancomycin-susceptible strains) [16]: 7.0
- Geometric Mean MIC, Vanco^r Strains [16]: 5.1 µg/mL
- MIC [17]: .5 µg/mL (≈ 0.285 µM)
- MIC (Enterococcus faecium X66): 1 µg/mL (≈ 0.57 µM)

SMILES: CNC(CC(C)C)C(=O)NC1C(=O)NC(CC(N)=O)C(=O)NC2C(=O)NC3C(=O)NC(C(=O)NC(C(=O)O)c4cc(O)cc(O)c4-c4cc3ccc4O)C(OC3CC(C)(N)C(O)C(C)O3)c3ccc(c(Cl)c3)Oc3cc2cc(c3OC2OC(CO)C(O)C(O)C2OC2CC(C)(NCc3ccc(Cl)cc3)C(O)C(C)O2)Oc2ccc(cc2Cl)C1O (centres unmarked) [Compound 60]
- Geometric Mean MIC, Vanco^s Strains [1]: 0.65 µg/mL
- ED50 (Streptococcus pyogenes): 0.06 mg/kg/2
- MIC [3]: .06 µg/mL (≈ 0.0349 µM)
- MIC [4]: .25 µg/mL (≈ 0.146 µM)
- MIC [5]: > 128 µg/mL
- MIC [6]: .5 µg/mL (≈ 0.291 µM)
- MIC [7]: .06 µg/mL (≈ 0.0349 µM)
- MIC [8]: > 128 µg/mL
- MIC [9]: > 128 µg/mL
- MIC [10]: > 128 µg/mL
- MIC [11]: .25 µg/mL (≈ 0.146 µM)
- MIC (Escherichia coli N10): > 128 µg/mL
- MIC [12]: > 128 µg/mL
- MIC [13]: .125 µg/mL (≈ 0.0728 µM)
- MIC (Escherichia coli EC14): > 128 µg/mL
- MIC [14]: .5 µg/mL (≈ 0.291 µM)
- MIC (Escherichia coli TEM): > 128 µg/mL
- ED50 (Streptococcus pneumoniae): 0.08 mg/kg/2
- ED50 (Staphylococcus aureus): 0.25 mg/kg/2
- MIC determined in absence of added serum [15]: 0.76
- ratio of the MIC in the presence of added serum to the MIC in the absence of added serum [15, 18]: 2.0
- MIC determined in presence of human serum [15]: 1.5
- Ratio (mean MIC vancomycin-resistant strains / mean MIC vancomycin-susceptible strains) [16]: 5.5
- Geometric Mean MIC, Vanco^r Strains [16]: 3.6 µg/mL
- MIC [17]: .25 µg/mL (≈ 0.146 µM)
- MIC (Enterococcus faecium X66): .25 µg/mL (≈ 0.146 µM)

SMILES: CN[C@H](CC(C)C)C(=O)N[C@H]1C(=O)N[C@@H](CC(N)=O)C(=O)N[C@H]2C(=O)N[C@H]3C(=O)N[C@H](C(=O)N[C@H](C(=O)O)c4cc(O)cc(O)c4-c4cc3ccc4O)[C@H](O[C@H]3C[C@](C)(N)[C@@H](O)[C@H](C)O3)c3ccc(c(Cl)c3)Oc3cc2cc(c3O[C@@H]2O[C@H](CO)[C@@H](O)[C@H](O)[C@H]2O[C@H]2C[C@](C)(N)[C@@H](O)[C@H](C)O2)Oc2ccc(cc2Cl)[C@H]1O [Compound A82846B, A82846B, reference compound]
- Geometric Mean MIC, Vanco^s Strains [1]: 0.51 µg/mL
- ratio of the MIC in the presence of added serum to the MIC in the absence of added serum [15]: 1.5
- MIC determined in absence of added serum [15]: 0.5
- MIC determined in presence of human serum [15]: 0.75
- Ratio (mean MIC vancomycin-resistant strains / mean MIC vancomycin-susceptible strains) [16]: 18.4
- Geometric Mean MIC, Vanco^r Strains [16]: 9.4 µg/mL

From patent publication US5591714A, “Derivatives of A82846” (priority 1994, dated 1997)
